Like-named read-outs stand apart in the source and are kept apart here.
Assays:
[1] = cited from earlier work
Source text: Table 3 Absorbed kidney dose and effective dose of ^18F-labeled tracer and metal-labeled exendin PET and SPECT tracers | column: Kidney dose [mSv/MBq]; Effective dose [mSv/MBq]

[2] = pig, in vivo
Procedure: In addition, the stability of [^18F]exendin-4 was determined in pig plasma. Prior to blood sampling, animals were anesthetized (midazolam 1 mg/kg, xylazine 4 mg/kg intramuscular), connected to a respirator, and ventilated mechanically. Anesthesia was maintained with an i.v. infusion of propofol (10–20 mg/kg/h) and fentanyl (4–8 μg/kg/h). Vital signs were monitored throughout the study. Pigs were injected (radioactivity 1.2 ± 0.2 MBq/kg, mass 0.14 ± 0.04 μg/kg) and blood was sampled at 5, 15, 30, 60, and 180 min p.i. (N = 3 samples/time point). Plasma was treated and analyzed as described above.

[3] = design: species or system human
Procedure: Absorbed doses were calculated with OLINDA/EXM1.0 software, which includes radionuclide information and a selection of human body phantoms. Rat ex vivo biodistributions were estimated by integrating the area under the time–activity curves. The obtained residence times were converted into corresponding human values by multiplying with organ-specific factors that scaled organs to body weights, as follows: (W TB,rat/W Organ,rat) × (W Organ,human/W TB,human), where W TB,rat and W TB,human are the total body weights of rats and humans (70-kg male), respectively; and W Organ,rat and W Organ,human are the organ weights of rats and humans (70-kg male), respectively.

[4] = target: T1, GLP-1R in the islets (Rattus norvegicus, UniProt P32301); test: Ex vivo autoradiography of rat pancreas; assay type: in vivo
T1 construct: We dissected a rat pancreas and brain and froze them immediately after dissection; from tissue; host or cells: rat pancreas (islets): in vivo injection followed by ex vivo autoradiography, and frozen sections in vitro
T1 sequence (P32301 22-463): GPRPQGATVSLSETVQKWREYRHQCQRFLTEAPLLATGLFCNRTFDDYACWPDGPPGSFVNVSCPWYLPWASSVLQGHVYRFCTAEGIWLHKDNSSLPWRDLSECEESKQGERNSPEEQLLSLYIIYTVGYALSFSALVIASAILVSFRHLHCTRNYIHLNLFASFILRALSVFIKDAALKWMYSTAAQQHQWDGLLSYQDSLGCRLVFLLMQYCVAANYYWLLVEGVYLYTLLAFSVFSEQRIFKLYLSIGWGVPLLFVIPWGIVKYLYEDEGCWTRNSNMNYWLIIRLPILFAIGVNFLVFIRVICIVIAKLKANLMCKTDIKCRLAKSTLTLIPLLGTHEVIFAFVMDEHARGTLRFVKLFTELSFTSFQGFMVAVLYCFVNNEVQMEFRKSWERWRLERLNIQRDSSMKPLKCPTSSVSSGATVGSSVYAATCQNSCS
Procedure: Rats were anesthetized with isoflurane/O2 and injected (i.v.) with [^18F]exendin-4 (radioactivity 23 ± 5 MBq/kg, mass 2 ± 1 μg/kg). After injection, animals were allowed to recover from the anesthesia (except animal sacrificed 15 min p.i.). We further investigated tracer distribution in the brain by injecting one rat with a highly radioactive dose (50 MBq) of [^18F]exendin-4. Animals were sacrificed at 15, 30, 60, 120, 240, and 360 min (N = 2–11 rats/time point). Blood was extracted, and selected organs were dissected and weighed. Tissue radioactivity was measured with a γ-counter (Wizard, PerkinElmer, Turku, Finland). Tracer specificity was tested by co-injecting radiolabeled exendin-4 with an excess of cold exendin-3 (3 mg/kg) (Peptide Specialty Laboratories GmbH). Measurements were corrected for radionuclide decay, and results were reported as the percentage of the injected dose of radioactivity per gram of tissue (%ID/g).
The kidney, pancreas, and brain were sectioned and exposed to imaging plates (Fuji BAS-TR2025; Fuji Photo Film Co., Tokyo, Japan) for approximately 4 h. Imaging plates were scanned with a BAS-5000 scanner (Fuji Photo Film Co.) and the images were analyzed with AIDA 4.5 software (Raytest, Isotopenmessgeräte, Straubenhardt, Germany). Three pancreatic sections per rat were analyzed (N = 2–8 rats/time point). We determined the mean density values (photostimulated luminescence per square millimeter, PSL/mm^2) of ten prominently labeled islets and of the exocrine tissue and corrected for background noise. Finally, the islet-to-exocrine tissue ratio was calculated. […] The pancreatic sections used for autoradiography were then stained with insulin antibody (1’ mouse-anti-insulin, Nordic Biosite, Täby, Sweden, 2’ MAHC1 mouse probe, Biocare Medical, Concord, CA, USA), counterstained with hematoxylin, and imaged with a Slide Scanner (Pannoramic 250 F, 3DHistech, Budapest, Hungary).

[5] = target: T2, GLP1-R-rich areas of rat brain (Rattus norvegicus, UniProt P32301); conditions: in vivo
T2 construct: We dissected a rat pancreas and brain and froze them immediately after dissection; from tissue; host or cells: rat brain (GLP-1R-rich areas): in vivo injection with ex vivo read-out, and frozen sections in vitro
T2 sequence (P32301 22-463): T1 sequence (P32301 22-463)
Procedure: The in vivo kinetics of [^18F]exendin-4 were evaluated with the Inveon Multimodality PET/CT scanner (Siemens, Knoxville, TN, USA). Rats were anesthetized with isoflurane/O2 and injected intravenously (i.v.) with [^18F]exendin-4 (radioactivity 23 ± 5 MBq/kg, mass 2 ± 1 μg/kg). PET scans were acquired for up to 6 h (dynamic 0–60 min; static 210–240 min and 330–360 min; N = 2–5 rats/scan). The data were reconstructed with the ordered subset expectation maximization OSEM2D algorithm. Analyses were performed with Inveon Research Workplace 3 software (Siemens), after defining the volumes of interest (VOIs) on selected tissues.
Rats were anesthetized with isoflurane/O2 and injected (i.v.) with [^18F]exendin-4 (radioactivity 23 ± 5 MBq/kg, mass 2 ± 1 μg/kg). […] Tissue radioactivity was measured with a γ-counter (Wizard, PerkinElmer, Turku, Finland). […] Measurements were corrected for radionuclide decay, and results were reported as the percentage of the injected dose of radioactivity per gram of tissue (%ID/g).
The kidney, pancreas, and brain were sectioned and exposed to imaging plates (Fuji BAS-TR2025; Fuji Photo Film Co., Tokyo, Japan) for approximately 4 h. Imaging plates were scanned with a BAS-5000 scanner (Fuji Photo Film Co.) and the images were analyzed with AIDA 4.5 software (Raytest, Isotopenmessgeräte, Straubenhardt, Germany). […] Finally, the islet-to-exocrine tissue ratio was calculated. […]

[6] = target: T3, GLP-1R in pancreatic islets (Rattus norvegicus, UniProt P32301); test: In vitro binding in rat pancreas sections (autoradiography)
T3 construct: We dissected a rat pancreas and brain and froze them immediately after dissection; from tissue; host or cells: rat pancreas (islets): in vivo injection followed by ex vivo autoradiography, and frozen sections in vitro
T3 sequence (P32301 22-463): T1 sequence (P32301 22-463)
Procedure: (§1) We acquired a piece of human pancreas that was frozen immediately after surgery. We dissected a rat pancreas and brain and froze them immediately after dissection. Prior to incubations with ligand, the tissue sections of human and rat pancreas and GLP-1R-rich areas from rat brain [19] were incubated for 30 min with 1% BSA in PBS (pH 7.4). Then, sections were incubated for 60 min with various concentrations of [^18F]exendin-4 (range 2.5–20 nM) in vitro. To investigate tracer specificity, sections were incubated for 30 min with an excess of cold exendin-3 prior to adding [^18F]exendin-4. Sections were then washed and exposed to imaging plates, as described above (ex vivo autoradiography). Next, sections were stained and processed, as described above.

[7] = target: T4, GLP-1R-rich areas from rat brain (Rattus norvegicus, UniProt P32301); test: In vitro binding in rat brain sections (autoradiography); conditions: lateral septum, 1.25 nM (Fig. 7)
T4 construct: We dissected a rat pancreas and brain and froze them immediately after dissection; from tissue; host or cells: rat brain (GLP-1R-rich areas): in vivo injection with ex vivo read-out, and frozen sections in vitro
T4 sequence (P32301 22-463): T1 sequence (P32301 22-463)
Procedure: as §1, with “Then, sections were incubated for 60 min with various concentrations of [^18F]exendin-4 (range 2.5–20 nM) in vitro.” left out

[8] = target: T5, GLP-1R in the islets (Homo sapiens, UniProt P43220); test: In vitro binding in human pancreas sections (autoradiography); conditions: human pancreatic tissue sections
T5 construct: We acquired a piece of human pancreas that was frozen immediately after surgery; from tissue; host or cells: human pancreas, frozen surgical specimen, sections
Procedure: as §1

[9] = design: method as in PMID 12629557; conditions: rat; cited from earlier work

T5 sequence (P43220 24-463): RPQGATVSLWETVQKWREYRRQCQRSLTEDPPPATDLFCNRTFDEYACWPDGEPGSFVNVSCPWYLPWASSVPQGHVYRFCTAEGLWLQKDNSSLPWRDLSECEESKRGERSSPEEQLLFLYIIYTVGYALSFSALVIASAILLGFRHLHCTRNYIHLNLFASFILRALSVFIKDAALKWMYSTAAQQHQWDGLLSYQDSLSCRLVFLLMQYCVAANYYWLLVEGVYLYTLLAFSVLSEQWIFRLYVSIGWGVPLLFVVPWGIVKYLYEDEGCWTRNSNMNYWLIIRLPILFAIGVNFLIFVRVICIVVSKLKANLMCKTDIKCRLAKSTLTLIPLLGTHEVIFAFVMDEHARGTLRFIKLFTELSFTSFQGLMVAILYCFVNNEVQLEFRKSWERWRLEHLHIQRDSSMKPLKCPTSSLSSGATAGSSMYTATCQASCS

Substance: [^64Cu]NODAGA-exendin-4: metal-labeled exendin PET tracer, ref 3
- Effective dose [1]: 0.074 mSv/MBq
- Kidney dose [1]: 1.48 mSv/MBq

Substance: [^111In]DTPA-exendin-4: metal-labeled exendin SPECT tracer
- Effective dose [1]: 0.155 mSv/MBq
- Kidney dose [1]: 4.48 mSv/MBq

Substance: ^18F-labeled [Nle^14,Lys^40]exendin-4 [[^18F]exendin-4]
- arrhythmia after administration [2]: arrhythmia was observed
- blood pressure after administration [2]: decreased
- body temperature after administration [2]: 41 °C
- heart rate after administration [2]: 230–250 beats/min
- Effective dose [3]: 0.021 mSv/MBq
- absorbed radiation dose, LLI (lower large intestine) wall [3]: 0.003 mSv/MBq
- absorbed radiation dose, ULI (upper large intestine) wall [3]: 0.005 mSv/MBq
- absorbed radiation dose, adrenal glands [3]: 0.016 mSv/MBq
- absorbed radiation dose, brain [3]: 0.004 mSv/MBq
- absorbed radiation dose, breasts [3]: 0.004 mSv/MBq
- absorbed radiation dose, gallbladder wall [3]: 0.011 mSv/MBq
- absorbed radiation dose, heart wall [3]: 0.010 mSv/MBq
- absorbed radiation dose, liver [3]: 0.026 mSv/MBq
- absorbed radiation dose, lungs [3]: 0.071 mSv/MBq
- absorbed radiation dose, muscle [3]: 0.005 mSv/MBq
- absorbed radiation dose, osteogenic cells [3]: 0.045 mSv/MBq
- absorbed radiation dose, ovaries [3]: 0.003 mSv/MBq
- absorbed radiation dose, pancreas [3]: 0.023 mSv/MBq
- absorbed radiation dose, red bone marrow [3]: 0.009 mSv/MBq
- absorbed radiation dose, skin [3]: 0.003 mSv/MBq
- absorbed radiation dose, small intestine [3]: 0.005 mSv/MBq
- absorbed radiation dose, spleen [3]: 0.022 mSv/MBq
- absorbed radiation dose, stomach wall [3]: 0.007 mSv/MBq
- absorbed radiation dose, testes [3]: 0.001 mSv/MBq
- absorbed radiation dose, thymus [3]: 0.005 mSv/MBq
- absorbed radiation dose, thyroid [3]: 0.003 mSv/MBq
- absorbed radiation dose, total body [3]: 0.009 mSv/MBq
- absorbed radiation dose, urinary bladder wall [3]: 0.002 mSv/MBq
- absorbed radiation dose, uterus [3]: 0.003 mSv/MBq
- islet labeling with blocking ([4]; co-injected with excess cold exendin-3, ex vivo autoradiography): not visible
- islet-to-exocrine tissue ratio ([4]; ex vivo autoradiography, PSL/mm^2 of ten islets vs exocrine tissue, N = 2–8 rats/time point): increased over time
- tracer uptake in pancreatic islets ([4]; i.v., ex vivo autoradiography, 60 min p.i. (Fig. 5a), verified by insulin staining): tracer uptake was observed
- blood–brain barrier crossing [5]: did not cross the blood–brain barrier
- islet labeling in vitro ([6]; 60 min incubation, 2.5 nM (Fig. 6), autoradiography): islet labeling was observed
- islet labeling in vitro with blocking ([6]; excess of cold exendin-3 added): not detected
- labeling of GLP-1R areas in brain in vitro [7]: clearly labeled
- tracer binding in human pancreatic islets with blocking ([8]; excess cold exendin-3 added): no [^18F]exendin-4 binding was observed
- tracer binding in human pancreatic islets ([8]; various concentrations (2.5–20 nM), 60 min, autoradiography, verified by insulin immunostaining): clearly visible

Substance: exendin-4
- blood–brain barrier crossing [9]: crossed the blood–brain barrier
